Reference: US9926304B2, “1-(arylmethyl)quinazoline-2,4(1H,3H)-diones as PARP inhibitors and the use thereof” (Impact Therapeutics, Inc., priority 2011, dated 2018)
Counter-ions that a name gives are not always drawn. Like-named read-outs stand apart in the source and are kept apart here.

Tests used:
[1] = test system: Human breast cancer cell line T47D; assay: Cell based caspase-3 activity assay: potentiation of MMS induced apoptosis; details: T47D cells, 11.1 μg/ml MMS, 24 hours, intracellular caspase-3 activity, read-out: EC50 (nM), potentiation of the apoptosis inducing activity of MMS
How it was run: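 T47D cells were exposed for 24 h to compound plus a minimally apoptotic MMS dose (medium containing 11.1 μg/ml MMS). Lysates were incubated 3 h at 37 °C with (Ac-DEVD)2-R110 caspase-3 substrate (20 μM in added buffer) and read at ex 496/em 520 nm. EC50 came from a sigmoidal fit of RFU versus log concentration.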

[2] = test system: SW620 human colorectal cancer cells; assay: MTT based cell viability assay: potentiation of the growth inhibiting activity of MMS
[3] = Homo sapiens, SW-620, 120 h, read-out: IC50 (nM), potentiation of the growth inhibiting activity of MMS, SW620 cells, 1.7 μg/ml MMS, 5 days (120 hours), MTT
[4] = read-out: IC50 (nM), potentiation of the growth inhibiting activity of MMS, SW620 cells, 1.7 μg/ml MMS, 5 days (120 hours), MTT, hydrochloride

SMILES	EC50 ([1]; Homo sapiens, T47D, 24 h) [nM]	IC50 [2, 3] [nM]	further results
O=C(c1cccc(Cn2c(=O)[nH]c(=O)c3ccccc32)c1)N1CCN(C2CCCC2)CC1 [Example 177, 1-(3-(4-Cyclopentylpiperazine-1-carbonyl)benzyl)quinazoline-2,4(1H,3H)-dione]	743	> 10000	
O=C(c1cc(Cn2c(=O)[nH]c(=O)c3ccccc32)ccc1F)N1CCN(c2ncccn2)CC1 [Example 192, 1-(4-Fluoro-3-(4-(pyrimidin-2-yl)piperazine-1-carbonyl)benzyl)quinazoline-2,4(1H,3H)-dione hydrochloride]			EC50 ([1]; hydrochloride): 3.1 nM; IC50 [2, 4]: 79 nM
O=C(c1cc(Cn2c(=O)[nH]c(=O)c3c(F)cccc32)ccc1F)N1CCN(c2ncccn2)CC1 [Example 193, 5-Fluoro-1-(4-fluoro-3-(4-(pyrimidin-2-yl)piperazine-1-carbonyl)benzyl)quinazoline-2,4(1H,3H)-dione hydrochloride]			EC50 ([1]; hydrochloride): 1.6 nM; IC50 [2, 4]: 4.5 nM
O=C(Cc1ccc2ccccc2c1)Nc1cccc(Cn2c(=O)[nH]c(=O)c3ccccc32)c1 [Example 196, 1-(3-(Naphthalen-2-yl)acetamidobenzyl)quinazoline-2,4(1H,3H)-dione]	> 10000	985	
COc1ccc(CC(=O)Nc2cccc(Cn3c(=O)[nH]c(=O)c4ccccc43)c2)cc1OC [Example 197, 1-(3-(3,4-Dimethoxyphenyl)acetamidobenzyl)quinazoline-2,4(1H,3H)-dione]	> 10000	> 10000	
O=C(c1cccc(Cn2c(=O)[nH]c(=O)c3ccccc32)c1)c1ccc2nncn2c1 [Example 198, 1-(3-([1,2,4]Triazolo[4,3-a]pyridine-6-carbonyl)benzyl)quinazoline-2,4(1H,3H)-dione]	> 10000	> 10000	
COc1ccc(CNC(=O)c2cc(Cn3c(=O)[nH]c(=O)c4c(F)cccc43)ccc2F)cc1 [Example 200, 5-Fluoro-1-(4-fluoro-3-(4-methoxybenzylcarbamoyl)benzyl)quinazoline-2,4(1H,3H)-dione]	> 10000	> 10000	
O=C(NCc1cccc(Cl)c1)c1cc(Cn2c(=O)[nH]c(=O)c3c(F)cccc32)ccc1F [Example 201, 1-(3-(3-Chlorobenzylcarbamoyl)-4-fluorobenzyl)-5-fluoroquinazoline-2,4(1H,3H)-dione]	> 10000	> 10000	
O=C(NCc1ccccc1)c1cc(Cn2c(=O)[nH]c(=O)c3c(F)cccc32)ccc1F [Example 202, 1-(3-(Benzylcarbamoyl)-4-fluorobenzyl)-5-fluoroquinazoline-2,4(1H,3H)-dione]	> 10000	> 10000	
COc1cccc2c1c(=O)[nH]c(=O)n2Cc1cccc(C(=O)N2CCN(c3ncccn3)CC2)c1 [Example 203, 5-Methoxy-1-(3-(4-(pyrimidin-2-yl)piperazine-1-carbonyl)benzyl)quinazoline-2,4(1H,3H)-dione]	> 10000	> 10000	
COc1ccc2c(c1)c(=O)[nH]c(=O)n2Cc1cccc(C(=O)N2CCN(c3ncccn3)CC2)c1 [Example 204, 6-Methoxy-1-(3-(4-(pyrimidin-2-yl)piperazine-1-carbonyl)benzyl)quinazoline-2,4(1H,3H)-dione]	> 10000	> 10000	
O=C(c1cccc(Cn2c(=O)[nH]c(=O)c3ccc(C(F)(F)F)cc32)c1)N1CCN(c2ncccn2)CC1 [Example 206, 1-(3-(4-(Pyrimidin-2-yl)piperazine-1-carbonyl)benzyl)-7-(trifluoromethyl)quinazoline-2,4(1H,3H)-dione]	> 10000	> 10000	
O=C(c1cccc(Cn2c(=O)[nH]c(=O)c3cc4c(cc32)OCCO4)c1)N1CCN(c2ncccn2)CC1 [Example 207, 6,7-Ethylenedioxo-1-(3-(4-(pyrimidin-2-yl)piperazine-1-carbonyl)benzyl)quinazoline-2,4(1H,3H)-dione]			EC50 [1]: > 10000 nM; IC50 ([2]; read-out: IC50 (nM), potentiation of the growth inhibiting activity of MMS, SW620 cells, 1.7 μg/ml MMS, 5 days (120 hours), MTT): > 10000 nM
O=C(c1cc(Cn2c(=O)[nH]c(=O)c3c(F)cccc32)ccc1Br)N1CCN(c2ncccn2)CC1 [Example 215, 1-(4-Bromo-3-(4-(pyrimidin-2-yl)piperazine-1-carbonyl)benzyl)-5-fluoroquinazoline-2,4(1H,3H)-dione]	743	1390	

The remaining molecules from weak to strong by EC50 ([1]; Homo sapiens, T47D, 24 h), led by results:

EC50 ([1]; Homo sapiens, T47D, 24 h) [nM]	IC50 [2, 3] [nM]	SMILES	further results
654	517	O=C(c1cc(Cn2c(=O)[nH]c(=O)c3c(F)cccc32)ccc1F)N1CCC(c2ccccc2)CC1 [Example 214, 5-Fluoro-1-(4-fluoro-3-(4-phenylpiperidine-1-carbonyl)benzyl)quinazoline-2,4(1H,3H)-dione]	
590	58	O=C(c1cc(Cn2c(=O)[nH]c(=O)c3c(F)cccc32)ccc1F)N1CCN(c2ccccc2)CC1 [Example 213, 5-Fluoro-1-(4-fluoro-3-(4-phenylpiperazine-1-carbonyl)benzyl)quinazoline-2,4(1H,3H)-dione]	
471	1440	O=c1[nH]c(=O)n(Cc2cccc(CN3CCN(c4ccccn4)CC3)c2)c2ccccc12 [Example 195, 1-(3-((4-(Pyridin-2-yl)piperazin-1-yl)methyl)benzyl)quinazoline-2,4(1H,3H)-dione]	
294	103	COc1ccc2c(=O)[nH]c(=O)n(Cc3cccc(C(=O)N4CCN(c5ncccn5)CC4)c3)c2c1 [Example 209, 7-Methoxy-1-(3-(4-(pyrimidin-2-yl)piperazine-1-carbonyl)benzyl)quinazoline-2,4(1H,3H)-dione]	
166	145	O=C(c1cc(Cn2c(=O)[nH]c(=O)c3c(F)cccc32)ccc1[N+](=O)[O-])N1CCN(c2ncccn2)CC1 [Example 211, 5-Fluoro-1-(4-nitro-3-(4-(pyrimidin-2-yl)piperazine-1-carbonyl)benzyl)quinazoline-2,4(1H,3H)-dione]	
30	27	O=C(c1ccc(Cl)c(Cn2c(=O)[nH]c(=O)c3cc(F)ccc32)c1)N1CCN(c2ncccn2)CC1 [Example 187, 1-(6-Chloro-3-(4-(pyrimidin-2-yl)piperazine-1-carbonyl)benzyl)-6-fluoroquinazoline-2,4(1H,3H)-dione]	
24	37	COc1ccc(C(=O)N2CCN(c3ncccn3)CC2)cc1Cn1c(=O)[nH]c(=O)c2c(F)cccc21 [Example 208, 5-Fluoro-1-(6-methoxy-3-(4-(pyrimidin-2-yl)piperazine-1-carbonyl)benzyl)quinazoline-2,4(1H,3H)-dione]	
18	62	O=C(c1ccc(F)c(Cn2c(=O)[nH]c(=O)c3c(F)cccc32)c1)N1CCN(C(=O)c2ccco2)CC1 [Example 184, 5-Fluoro-1-(6-fluoro-3-(4-(furan-2-carbonyl)piperazine-1-carbonyl)benzyl)quinazoline-2,4(1H,3H)-dione]	
14	16	O=C(c1cc(F)cc(Cn2c(=O)[nH]c(=O)c3cc(Cl)ccc32)c1)N1CCN(c2ncccn2)CC1 [Example 175, 6-Chloro-1-(5-fluoro-3-(4-(pyrimidin-2-yl)piperazine-1-carbonyl)benzyl)quinazoline-2,4(1H,3H)-dione]	
14	16	O=C(c1ccc(F)c(Cn2c(=O)[nH]c(=O)c3c(F)cccc32)c1)N1CCN(C(=O)C2CCC2)CC1 [Example 182, 1-(3-(4-(Cyclobutylcarbonyl)piperazine-1-carbonyl)-6-fluorobenzyl)-5-fluoroquinazoline-2,4(1H,3H)-dione]	
11	7.9	O=C(c1cc(Cn2c(=O)[nH]c(=O)c3cc(F)ccc32)ccc1F)N1CCN(C(=O)C2CC2)CC1 [Example 178, 1-(3-(4-(Cyclopropylcarbonyl)piperazine-1-carbonyl)-4-fluorobenzyl)-6-fluoroquinazoline-2,4(1H,3H)-dione]	
11	18	O=C(c1cccc(Cn2c(=O)[nH]c(=O)c3ccccc32)c1)N1CCN(c2ncccn2)CC1 [Example 194, 1-(3-(4-(Pyrimidin-2-yl)piperazine-1-carbonyl)benzyl)quinazoline-2,4(1H,3H)-dione hydrochloride]	
7.4	12	O=C(c1cccc(Cn2c(=O)[nH]c(=O)c3cc(F)ccc32)c1)N1CCN(C(=O)C2CCC2)CC1 [Example 179, 1-(3-(4-(Cyclobutylcarbonyl)piperazine-1-carbonyl)benzyl)-6-fluoroquinazoline-2,4(1H,3H)-dione]	
6.1	13	O=C(c1ccc(F)c(Cn2c(=O)[nH]c(=O)c3cc(F)ccc32)c1)N1CCN(C(=O)C2CCC2)CC1 [Example 183, 1-(3-(4-(Cyclobutylcarbonyl)piperazine-1-carbonyl)-6-fluorobenzyl)-6-fluoroquinazoline-2,4(1H,3H)-dione]	
2.4	4.9	O=C(c1ccccc1)N1CCN(C(=O)c2cc(Cn3c(=O)[nH]c(=O)c4cc(F)ccc43)ccc2F)CC1 [Example 181, 1-(3-(4-Benzoylpiperazine-1-carbonyl)-4-fluorobenzyl)-6-fluoroquinazoline-2,4(1H,3H)-dione]	
1.4	3.1	O=C(c1cc(Cn2c(=O)[nH]c(=O)c3cc(F)ccc32)ccc1F)N1CCN(C(=O)C2CCC2)CC1 [Example 180, 1-(3-(4-(Cyclobutylcarbonyl)piperazine-1-carbonyl)-4-fluorobenzyl)-6-fluoroquinazoline-2,4(1H,3H)-dione]	
